# Assay results reported in ChEMBL document CHEMBL1201862, “PubChem BioAssay data set” (2004).
# Active and inactive are the calls of the source. How the calls were made is not given here.
# Key:
# [1] = biological target: T1, High affinity choline transporter 1 (Homo sapiens, UniProt Q9GZV3); test: CHT inhibitors, dose response, cell-based, 5-point CRC, membrane potential dye (AID 504840); format: functional
# T1 sequence (Q9GZV3 whole entry): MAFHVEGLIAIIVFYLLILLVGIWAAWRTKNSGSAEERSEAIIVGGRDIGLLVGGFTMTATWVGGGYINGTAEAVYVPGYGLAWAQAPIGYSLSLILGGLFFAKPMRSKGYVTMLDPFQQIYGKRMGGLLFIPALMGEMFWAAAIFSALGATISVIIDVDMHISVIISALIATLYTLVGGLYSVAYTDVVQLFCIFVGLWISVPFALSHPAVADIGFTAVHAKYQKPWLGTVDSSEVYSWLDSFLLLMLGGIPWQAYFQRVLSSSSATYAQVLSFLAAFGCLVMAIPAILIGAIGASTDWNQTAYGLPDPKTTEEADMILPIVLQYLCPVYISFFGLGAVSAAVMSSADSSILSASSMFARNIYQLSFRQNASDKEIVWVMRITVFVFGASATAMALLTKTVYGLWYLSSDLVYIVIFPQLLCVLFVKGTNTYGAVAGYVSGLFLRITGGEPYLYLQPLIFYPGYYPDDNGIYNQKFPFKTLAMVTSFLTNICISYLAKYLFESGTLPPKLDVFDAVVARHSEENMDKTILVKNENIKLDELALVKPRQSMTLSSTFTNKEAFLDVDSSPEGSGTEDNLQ
# [2] = biological target: T1, High affinity choline transporter 1; test: CHT inhibitors, dose response, cell-based, 10-point CRC, membrane potential dye (AID 588401); format: functional;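 further: membrane potential dye fluorescence of choline-evoked depolarization via CHT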
structure (smiles),measurement,setting,value
CC1=NOC(=O)/C1=C/c1ccc(O)c(Br)c1,IC50,[1],4.77 µM (active)
same,IC50,[2],3.98 µM (active)
